Test results taken from patent US20230264009A1, “DISINFECTING CAP KIT FOR LUER ACCESS DEVICES” (SterileCare Inc., priority 2022, published 2023).
Counter-ions that a name gives are not always drawn.

Columns and labels:
[1] = tested on: S. epidermidis SK9; experiment: Checkerboard titration, FMCI; assay type: cell-based, Staphylococcus epidermidis
Procedure: (§1) An assay was made using a minimum inhibitory concentration (MIC) and minimum bactericidal concentration (MBC) and minimum fungicidal concentration (MFC) determination. The MIC was determined by the micro broth dilution method in 96-well plates. Serial two-fold dilutions of tetrasodium EDTA (from 2% to 0.015%), ethanol (from 50% to 0.1%) and chlorhexidine HCl (from 100 µg/mL to 0.025 µg/mL) were prepared in MH broth with a final volume of 90 µL per well. A 10 µL containing 1 × 10^5 bacterial cells or 2 × 10^3 fungal cells were added to each well. The inoculated plates were covered with a lid, sealed with Parafilm, and incubated for 24 h at 37° C. with slight rocking on a tilting platform shaker. After incubation, the optical density at 600 nm (OD 600 ) of the cultures in each well was measured using an xMark™ Microplate Absorbance Spectrophotometer (Bio-Rad). […] MBCs and MFCs were determined by transferring 100 µL from each well with no apparent growth onto appropriate agar plates, followed by incubation for 24 h at 37° C.
(§2) A fourth composition and solution included tetrasodium EDTA with ethanol or chlorhexidine HCl. This fourth composition and solution were created using checkerboard titration methods using micro broth dilution in 96-well microtiter plates. The concentrations of antimicrobials used were based on previously determined MIC values. Briefly, 200 µL of two-fold dilutions of tetrasodium EDTA and ethanol or chlorhexidine HCl were prepared in MH or MH II broth with standardized cell suspension. […] Microtiter plates were incubated at 37° C. for 24 h, and the results were analyzed. Each test was performed in duplicate and included a growth control without adding any antimicrobials.

[2] = tested on: 48-h old biofilms of test organisms; experiment: Rapid biofilm eradication, 2 h exposure; assay type: cell-based; settings: alone at the MBEC
Procedure: Determining rapid biofilm eradication by tetrasodium EDTA, ethanol, and chlorhexidine HCl alone and in combination was performed. After biofilm formation, control pegs (n = 6) were removed and analyzed to determine the starting biofilm cell numbers via the drop dilution method. The 48-h old biofilms on the pegs were exposed to different concentrations of test antimicrobials, dissolved in an appropriate growth medium, for two h to evaluate their efficacy alone and in combination. Antimicrobial solutions tested against each organism included each agent alone at the MBEC, double combinations at the FBEC, and triple combinations ranging from 5 to 20% ethanol, 2.5-5 µg/mL chlorhexidine HCl and 1- 3% tetrasodium EDTA. Following treatment, pegs were washed twice with sterile PBS, and the biofilm cells were dislodged into recovery medium and enumerated as described above.
The method for rapid biofilm eradication ability of test antimicrobials alone and in combination against 48-h-old biofilms within two h exposure time included (1) choosing different concentrations of test antimicrobials to assess their potency in eradicating preformed biofilms of study organisms within two h. Then (2) the quantitative recovery from biofilms following exposure to the antimicrobial solutions for bacterial strains (FIGS. 6A-6C) and fungal strains (FIG. 7) was evaluated.

[3] = tested on: E. coli SK2; experiment: Checkerboard titration, FICI; assay type: cell-based, Escherichia coli; settings: tetrasodium EDTA + chlorhexidine HCl
Procedure: as §2

[4] = tested on: Proteus mirabilis ON153; experiment: Checkerboard titration, FMCI; assay type: cell-based; settings: P. mirabilis ON153
Procedure: as §1, §2

[5] = tested on: Pseudomonas aeruginosa SK1; experiment: Checkerboard titration, FMCI; assay type: cell-based; settings: tetrasodium EDTA + chlorhexidine HCl; P. aeruginosa SK1
Procedure: as §1, §2

[6] = tested on: Stenotrophomonas maltophilia ON17; experiment: Checkerboard titration, FMCI; assay type: cell-based; settings: S. maltophilia ON17
Procedure: as §1, §2

[7] = tested on: Staphylococcus aureus ON89; experiment: Checkerboard titration, FMCI; assay type: cell-based; settings: S. aureus ON89
Procedure: as §1, §2

[8] = tested on: Serratia marcescens SK2; experiment: Checkerboard titration, FMCI; assay type: cell-based; settings: S. marcescens SK2
Procedure: as §1, §2

[9] = tested on: Escherichia coli ON29; experiment: Checkerboard titration, FMCI; assay type: cell-based; settings: tetrasodium EDTA + chlorhexidine HCl; E. coli ON29
Procedure: as §1, §2

[10] = tested on: Staphylococcus epidermidis ON170; experiment: Checkerboard titration, FMCI; assay type: cell-based; settings: S. epidermidis ON170
Procedure: as §1, §2

[11] = tested on: Candida albicans SK4b; experiment: Checkerboard titration, FMCI; assay type: cell-based; settings: C. albicans SK4b
Procedure: as §1, §2

[12] = tested on: E. coli SK2; experiment: Checkerboard titration, FMCI; assay type: cell-based, Escherichia coli; settings: tetrasodium EDTA + chlorhexidine HCl
Procedure: as §1, §2

[13] = tested on: S. epidermidis SK9; experiment: Checkerboard titration, FICI; assay type: cell-based, Staphylococcus epidermidis
Procedure: as §2

[14] = tested on: C. albicans ON47; experiment: Checkerboard titration, FMCI; assay type: cell-based, Candida albicans
Procedure: as §1, §2

[15] = tested on: C. albicans ON47; experiment: Checkerboard titration, FICI; assay type: cell-based, Candida albicans
Procedure: as §2

[16] = tested on: 48-h-old biofilms of bacterial and fungal strains; experiment: MBEC Assay, 24 h exposure (summary); assay type: cell-based; settings: following 24 h of treatment
Procedure: A biofilm cultivation cell composition was provided. This fifth composition was created using an MBEC Assay® biofilm inoculator, consisting of a polystyrene lid with 96 downward-protruding pegs and a corresponding base used to grow biofilms. A standardized inoculum was diluted in an appropriate biofilm growth medium to achieve a viable cell count of 1.5 × 10^6 CFU/mL of bacterial cells or […] CFU/mL of fungal cells. Then, 150 µL of this inoculum was transferred into each appropriate well, and the peg lids were inserted into the microtiter plates. The plates were sealed with Parafilm and were incubated at optimum temperature for 48 h with slight rocking for bacteria and shaking at 200 rpm for fungal strains. After incubation, the peg lid was removed from the base and rinsed twice with sterile phosphate-buffered saline (PBS) for 2 min to remove loosely attached non-sessile cells. Before the antimicrobial challenge, the pegs in column 1 (n = 8) were considered the biofilm growth control; these pegs were removed from the lids, placed into 200 µL of recovery medium, and analyzed for starting biofilm cell numbers as described below. […] After the antimicrobial challenge, the pegs were rinsed twice with sterile PBS for 2 min and placed into a new 96-well plate containing 200 µL of recovery medium. The recovery plates were sealed with Parafilm, and biofilm cells were dislodged from the pegs by sonication for 30 min with a Branson 3510 bath sonicator. The biofilm cells in the recovery medium were serially diluted, and a drop dilution assay was performed to enumerate the viable cells. MBEC values were determined as the minimum concentration of antimicrobials that yielded a viable cell count at or lower than the 125 CFU/mL detection limit.

[17] = tested on: MRSA ON184; experiment: Checkerboard titration, FICI; assay type: cell-based, Staphylococcus aureus
Procedure: as §2

[18] = tested on: Proteus mirabilis ON153; experiment: Checkerboard titration, FICI; assay type: cell-based; settings: P. mirabilis ON153
Procedure: as §2

[19] = tested on: Pseudomonas aeruginosa SK1; experiment: Checkerboard titration, FICI; assay type: cell-based; settings: tetrasodium EDTA + chlorhexidine HCl; P. aeruginosa SK1
Procedure: as §2

[20] = tested on: Stenotrophomonas maltophilia ON17; experiment: Checkerboard titration, FICI; assay type: cell-based; settings: S. maltophilia ON17
Procedure: as §2

[21] = tested on: Staphylococcus aureus ON89; experiment: Checkerboard titration, FICI; assay type: cell-based; settings: S. aureus ON89
Procedure: as §2

[22] = tested on: Serratia marcescens SK2; experiment: Checkerboard titration, FICI; assay type: cell-based; settings: tetrasodium EDTA + chlorhexidine HCl; S. marcescens SK2
Procedure: as §2

[23] = tested on: Escherichia coli ON29; experiment: Checkerboard titration, FICI; assay type: cell-based; settings: tetrasodium EDTA + chlorhexidine HCl; E. coli ON29
Procedure: as §2

[24] = tested on: Staphylococcus epidermidis ON170; experiment: Checkerboard titration, FICI; assay type: cell-based; settings: S. epidermidis ON170
Procedure: as §2

[25] = tested on: Candida albicans SK4b; experiment: Checkerboard titration, FICI; assay type: cell-based; settings: C. albicans SK4b
Procedure: as §2

[26] = tested on: MRSA ON184; experiment: Checkerboard titration, FMCI; assay type: cell-based, Staphylococcus aureus
Procedure: as §1, §2

[27] = tested on: Candida albicans SK4b biofilm; experiment: FBEC index, checkerboard dilution on biofilms; assay type: cell-based; settings: tetrasodium EDTA + ethanol; C. albicans SK4b biofilm
Procedure: (§3) In step (4), microtiter plates are incubated at 37° C. for 24 h. then (6), after incubation, the bacterial and fungal cells were dislodged from the pegs into the recovery medium described above.
(§4) Three 10-µL aliquots, for a total of 30 µL from each well of recovery medium, were spotted on MH agar plates and incubated for 24 h at 37° C. […] The FBEC determination is a modification of the FICI.

[28] = tested on: Staphylococcus epidermidis SK9 biofilm; experiment: FBEC index, checkerboard dilution on biofilms; assay type: cell-based; settings: tetrasodium EDTA + ethanol; S. epidermidis SK9 biofilm
Procedure: as §3, §4

[29] = tested on: Escherichia coli SK2 biofilm; experiment: FBEC index, checkerboard dilution on biofilms; assay type: cell-based; settings: tetrasodium EDTA + ethanol; E. coli SK2 biofilm
Procedure: as §3, §4

[30] = tested on: MRSA ON184 biofilm; experiment: FBEC index, checkerboard dilution on biofilms; assay type: cell-based, Staphylococcus aureus; settings: tetrasodium EDTA + ethanol
Procedure: as §3, §4

[31] = tested on: C. albicans ON47 biofilm; experiment: FBEC index, checkerboard dilution on biofilms; assay type: cell-based, Candida albicans; settings: tetrasodium EDTA + ethanol
Procedure: as §3, §4

[32] = tested on: Staphylococcus aureus ON89 biofilm; experiment: FBEC index, checkerboard dilution on biofilms; assay type: cell-based; settings: tetrasodium EDTA + ethanol; S. aureus ON89 biofilm
Procedure: as §3, §4

[33] = tetrasodium EDTA + chlorhexidine HCl

[H]/N=C(\N/C(=N/[H])NCCCCCCNC(=N)NC(=N)Nc1ccc(Cl)cc1)Nc1ccc(Cl)cc1 [Chlorhexidine HCl, chlorhexidine HCl]
0.8 µg/mL: Concentration in combination giving FMCI [11, 33] | Concentration in combination giving FICI [15, 33] | Concentration in combination giving FICI [18, 33] | Concentration in combination giving FICI [19] | Concentration in combination giving FICI [25, 33]
failed to eradicate: Eradication of preformed biofilms [2]
0.05 µg/mL: Concentration in combination giving FICI [24, 33]
100 µg/mL: Concentration alone able to eradicate all established biofilms [16]
1.6 µg/mL: Concentration in combination giving FMCI [4, 33] | Concentration in combination giving FMCI [5] | Concentration in combination giving FMCI [8, 33] | Concentration in combination giving FMCI [14, 33]
1.5 µg/mL: Concentration in combination giving FICI [22]
0.4 µg/mL: Concentration in combination giving FMCI [1, 33] | Concentration in combination giving FMCI [6, 33] | Concentration in combination giving FMCI [10, 33] | Concentration in combination giving FMCI [26, 33]
0.2 µg/mL: Concentration in combination giving FMCI [7, 33] | Concentration in combination giving FMCI [9] | Concentration in combination giving FMCI [12] | Concentration in combination giving FICI [17, 33] | Concentration in combination giving FICI [20, 33] | Concentration in combination giving FICI [23]
0.025 µg/mL: Concentration in combination giving FICI [13, 33]
0.1 µg/mL: Concentration in combination giving FICI [3] | Concentration in combination giving FICI [21, 33]

CCO [Ethanol, ethanol]
3.125 % w/v: Concentration in combination giving FMCI ([1]; tetrasodium EDTA + ethanol) | Concentration in combination giving FMCI ([7]; tetrasodium EDTA + ethanol) | Concentration in combination giving FMCI ([11]; tetrasodium EDTA + ethanol) | Concentration in combination giving FMCI ([14]; tetrasodium EDTA + ethanol) | Concentration in combination giving FMCI ([26]; tetrasodium EDTA + ethanol)
6.25 % w/v: Concentration in combination giving FMCI ([4]; tetrasodium EDTA + ethanol) | Concentration in combination giving FMCI ([8]; tetrasodium EDTA + ethanol)
0.8 % w/v: FBEC (concentration in combination) [32]
failed to eradicate: Eradication of preformed biofilms [2]
1.6 % w/v: Concentration in combination giving FMCI ([6]; tetrasodium EDTA + ethanol) | Concentration in combination giving FMCI ([10]; tetrasodium EDTA + ethanol) | FBEC (concentration in combination) [27] | FBEC (concentration in combination) [28] | FBEC (concentration in combination) [29] | FBEC (concentration in combination) [30] | Concentration in combination giving FICI ([18]; tetrasodium EDTA + ethanol) | Concentration in combination giving FICI ([25]; tetrasodium EDTA + ethanol) | FBEC (concentration in combination) [31]
0.4 % w/v: Concentration in combination giving FICI ([13]; tetrasodium EDTA + ethanol) | Concentration in combination giving FICI ([15]; tetrasodium EDTA + ethanol) | Concentration in combination giving FICI ([17]; tetrasodium EDTA + ethanol) | Concentration in combination giving FICI ([20]; tetrasodium EDTA + ethanol) | Concentration in combination giving FICI ([21]; tetrasodium EDTA + ethanol) | Concentration in combination giving FICI ([24]; tetrasodium EDTA + ethanol)
5%: Concentration alone able to eradicate all established biofilms [16]
